According to ChEMBL document CHEMBL5053557, “Discovery of Novel Dual-Target Inhibitor of Bromodomain-Containing Protein 4/Casein Kinase 2 Inducing Apoptosis and Autophagy-Associated Cell Death for Triple-Negative Breast Cancer Therapy” (J Med Chem, 2021):

Columns and labels:
MDA-MB-468 = test: Antiproliferative activity against human MDA-MB-468 cells incubated for 24 hrs by MTT assay; format: functional, cell-based; conditions: MDA-MB-468, 24 h
MDA-MB-231 = test: cells; conditions: Homo sapiens, MDA-MB-231, 24 h

SMILES | IC50 (MDA-MB-468) | IC50 (MDA-MB-231)
Cc1ccc(-c2nc3ccccc3c(=O)[nH]2)cc1 | > 50 µM | > 50 µM
CN1CCN(c2ccc(NC(=O)COc3ccc(-c4nc5ccc(Cl)cc5c(=O)[nH]4)cc3)cc2Cl)CC1 | 6.23 µM | 5.21 µM
COc1cc(OC)c2c(=O)[nH]c(-c3ccc(OCC(=O)Nc4cccc(N5CCN(C)CC5)c4)cc3)nc2c1 | 8.07 µM | 13.2 µM
COC(=O)COc1ccc(-c2nc3cc(OC)cc(OC)c3c(=O)[nH]2)cc1 | 13.8 µM | 22 µM
COc1cc(OC)c2c(=O)[nH]c(-c3ccc(OCC(=O)Nc4ccc(N5CCN(C)CC5)c(F)c4)cc3)nc2c1 | 7.55 µM | 6.3 µM
COc1cc(OC)c2c(=O)[nH]c(-c3cc(Br)c(OCC(=O)Nc4ccc(N5CCOCC5)c(Cl)c4)c(Br)c3)nc2c1 | 5.53 µM | 4.02 µM
COc1cc(OC)c2c(=O)[nH]c(-c3ccc(OCC(=O)Nc4ccc(N5CCOCC5)cc4)cc3)nc2c1 | 9.54 µM | 7.67 µM
COc1cc(OC)c2c(=O)[nH]c(-c3ccc(OCC(=O)Nc4ccc(N5CCCCC5)cc4)cc3)nc2c1 | 11.6 µM | 10.3 µM
O=c1cc(-c2ccccc2)oc2ccc(Br)cc12 [6-BROMOFLAVONE] | 48.2 µM | 33.5 µM
COc1cccc(-c2cc(=S)c3cc(OC)ccc3o2)c1 | > 50 µM | > 50 µM
COc1ccc2nc(-c3ccc(NC(C)=O)cc3)[nH]c(=O)c2c1 | 41.2 µM | > 50 µM
COc1cc(OC)c2c(=O)[nH]c(-c3ccc(OCC(=O)Nc4ccc(N5CCOCC5)c(F)c4)cc3)nc2c1 | 8.58 µM | 7.09 µM
CN1CCN(c2ccc(NC(=O)COc3ccc(-c4nc5cc(F)ccc5c(=O)[nH]4)cc3)cc2Cl)CC1 | 7.51 µM | 6.94 µM
CN1CCN(c2ccc(NC(=O)COc3ccc(-c4nc5cc(Cl)ccc5c(=O)[nH]4)cc3)cc2Cl)CC1 | 15.3 µM | 14.4 µM
COc1cc(OC)c2c(=O)[nH]c(-c3cc(C)c(OCC(=O)Nc4cccc(N5CCOCC5)c4)c(C)c3)nc2c1 | 13.4 µM | 11.3 µM
COc1cc(OC)c2c(=O)[nH]c(-c3cc(C)c(OCC(=O)Nc4ccc(N5CCOCC5)cc4)c(C)c3)nc2c1 | 9.49 µM | 8.23 µM
COc1cc(OC)c2c(=O)[nH]c(-c3ccc(OCC(=O)Nc4ccc(N5CCN(C)CC5)cc4)cc3)nc2c1 | 8.8 µM | 6.46 µM
COc1cc(OC)c2c(=O)[nH]c(-c3cccc(OCC(=O)O)c3)nc2c1 | 22.7 µM | 25.6 µM
COc1cc(OC)c2c(=O)cc(-c3cc(C)cc(C)c3)oc2c1 | 39.6 µM | 47.8 µM
COc1ccc2oc(-c3cc(C)cc(C)c3)cc(=O)c2c1 | > 50 µM | 45.7 µM
COc1cc(OC)c2c(=O)[nH]c(-c3cc(C)c(OCC(=O)Nc4ccc(N5CCOCC5)c(Cl)c4)c(C)c3)nc2c1 | 6.31 µM | 10.2 µM

SMILES | IC50 (MDA-MB-468) | IC50 (MDA-MB-231)
COc1cc(OC)c2c(=O)[nH]c(-c3ccc(C)cc3)nc2c1 | 38.4 µM | 45.6 µM
COc1cc(OC)c2c(=O)[nH]c(-c3cc(Br)c(OCC(=O)Nc4ccc(N5CCOCC5)cc4)c(Br)c3)nc2c1 | 15.1 µM | 13.2 µM
COc1cc(OC)c2c(=O)[nH]c(-c3cc(C)c(OCC(=O)Nc4ccc(N5CCOCC5)c(F)c4)c(C)c3)nc2c1 | 9.16 µM | 10.3 µM
COc1cccc(-c2nc3cc(OC)cc(OC)c3c(=O)[nH]2)c1 | 29.3 µM | 38.3 µM
COc1cc(OC)c2c(=O)[nH]c(-c3cc(C)c(OCC(=O)Nc4ccc(N5CCN(C)CC5)c(Cl)c4)c(C)c3)nc2c1 | 4.58 µM | 3.49 µM
COc1cc(OC)c2c(=O)[nH]c(-c3cc(C)c(OCC(=O)Nc4nc5ccccc5[nH]4)c(C)c3)nc2c1 | 30.3 µM | > 50 µM
COc1cc(OC)c2c(=O)[nH]c(-c3cc(C)c(OCC(=O)NC4CCN(C(=O)OC(C)(C)C)CC4)c(C)c3)nc2c1 | 17.2 µM | 22.4 µM
COc1cc(OC)c2c(=O)[nH]c(-c3ccc(OCC(=O)Nc4cc(OC)c(OC)c(OC)c4)cc3)nc2c1 | 15 µM | 23.4 µM
COc1cc(OC)c2c(=O)[nH]c(-c3ccc(OCC(=O)NC4CCN(C(=O)OC(C)(C)C)CC4)cc3)nc2c1 | 16.6 µM | 13.1 µM
COc1cc(OC)c2c(=O)[nH]c(-c3cc(C)c(OCC(=O)Nc4cccc(N5CCN(C)CC5)c4)c(C)c3)nc2c1 | 15.7 µM | 14.6 µM
COc1cc(OC)c2c(=O)[nH]c(-c3ccc(OCC(=O)Nc4cccc(N5CCOCC5)c4)cc3)nc2c1 | 17.8 µM | 15.3 µM
COc1ccc2nc(-c3ccc(C)cc3)[nH]c(=O)c2c1 | 30.4 µM | > 50 µM
COc1cc(OC)c2c(=O)[nH]c(-c3ccc(OCC(=O)Nc4ccccc4N4CCN(C)CC4)cc3)nc2c1 | 11.5 µM | 17.3 µM
COc1cc(OC)c2c(=O)[nH]c(-c3cccc(C)c3)nc2c1 | 39.4 µM | 43.9 µM
COc1cc(OC)c2c(=O)[nH]c(-c3cc(C)c(OCC(=O)NC4CCN(C)CC4)c(C)c3)nc2c1 | 15.6 µM | 17.2 µM
COc1cc(OC)c2c(=O)[nH]c(-c3cc(C)c(OCC(=O)Nc4ccc(N5CCCCC5)cc4)c(C)c3)nc2c1 | 9.43 µM | 13.4 µM
COc1cc(OC)c2c(=O)[nH]c(-c3cc(Br)c(OCC(=O)Nc4ccc(N5CCCCC5)cc4)c(Br)c3)nc2c1 | 15.6 µM | 16.4 µM
COc1cc(OC)c2c(=O)[nH]c(-c3cc(C)c(OCC(=O)NCC4CCOCC4)c(C)c3)nc2c1 | 25.6 µM | 23.6 µM
COc1cc(OC)c2c(=O)[nH]c(-c3cc(C)c(OCC(=O)Nc4ccc(N5CCN(C)CC5)c(F)c4)c(C)c3)nc2c1 | 8.33 µM | 5.72 µM
COc1cc(OC)c2c(=O)[nH]c(-c3cc(C)c(OCC(=O)Nc4cc(OC)c(OC)c(OC)c4)c(C)c3)nc2c1 | 16.6 µM | 24.4 µM
COc1cc(OC)c2c(=O)[nH]c(-c3cc(C)c(Br)c(C)c3)nc2c1 | 29.6 µM | 25.2 µM

SMILES | IC50 (MDA-MB-468) | IC50 (MDA-MB-231)
COc1cc(OC)c2c(=O)[nH]c(-c3ccc(C(=O)O)cc3)nc2c1 | 8.33 µM | 21.1 µM
COc1cc(OC)c2c(=O)[nH]c(-c3ccc(N)cc3)nc2c1 | > 50 µM | 36.5 µM
COc1ccc2oc(-c3ccccc3)cc(=S)c2c1 | > 50 µM | > 50 µM
COc1cc(OC)c2c(=O)[nH]c(-c3cc(C)c(OCC(=O)Nc4ccc(N5CCN(C)CC5)cc4)c(C)c3)nc2c1 | 12.6 µM | 10.8 µM
COc1cccc(-c2cc(=O)c3cc(OC)ccc3o2)c1 [6,3'-DIMETHOXYFLAVONE] | > 50 µM | > 50 µM
CC(=O)Nc1ccc(-c2nc3ccccc3c(=O)[nH]2)cc1 | > 50 µM | > 50 µM
COc1cc(OC)c2c(=O)[nH]c(-c3cc(Br)c(OCC(=O)Nc4ccc(N5CCN(C)CC5)cc4)c(Br)c3)nc2c1 | 15.8 µM | 13.6 µM
COc1cc(OC)c2c(=O)[nH]c(-c3ccc(OCC(=O)O)cc3)nc2c1 | 18.6 µM | 19.7 µM
COc1cc(OC)c2c(=O)[nH]c(-c3ccccc3OCC(=O)O)nc2c1 | 18.6 µM | 36.7 µM
COc1cc(OC)c2c(=O)[nH]c(-c3ccc(O)c(Br)c3)nc2c1 | 22.3 µM | 23.2 µM
COc1cc(-c2nc3ccccc3c(=O)[nH]2)cc(OC)c1O | > 50 µM | > 50 µM
COc1cc(OC)c2c(=O)[nH]c(-c3cc(C)c(O)c(C)c3)nc2c1 | 19.3 µM | 17.5 µM
COc1cc(OC)c2c(=O)[nH]c(-c3ccc(OCC(=O)NCC4CCOCC4)cc3)nc2c1 | 26.6 µM | 21.2 µM
COc1cc(OC)c2c(=O)[nH]c(-c3cc(Br)c(OCC(=O)NC4CCN(C)CC4)c(Br)c3)nc2c1 | 14.8 µM | 16.9 µM
COc1cc(OC)c2c(=S)cc(-c3cc(C)cc(C)c3)oc2c1 | > 50 µM | > 50 µM
COc1cc(OC)c2c(=O)[nH]c(-c3ccc(OCC(=O)Nc4ccc(N5CCOCC5)c(Cl)c4)cc3)nc2c1 | 8.29 µM | 4.52 µM
COc1cc(OC)c2c(=O)[nH]c(-c3ccc(OCC(=O)Nc4ccc(N5CCCC5)cc4)cc3)nc2c1 | 7.82 µM | 19.6 µM
COc1cc(OC)c2c(=O)[nH]c(-c3ccc(NC(C)=O)cc3)nc2c1 | 24.7 µM | 27.3 µM
COc1ccc2nc(-c3cc(OC)c(O)c(OC)c3)[nH]c(=O)c2c1 | 43.3 µM | > 50 µM
Cc1ccc2nc(-c3ccc(OCC(=O)Nc4ccc(N5CCN(C)CC5)c(Cl)c4)cc3)[nH]c(=O)c2c1 | 16.2 µM | 17.4 µM
